Consider 40 molecules from patent publication US11230541B2, “Heterocyclic compound” (Takeda Pharmaceutical Company Limited, priority 2017, dated 2022).

This assay addresses T1, NMDA receptor composed of four subunits including 2 sets of heterodimers of NR1 and NR2B (Homo sapiens, UniProt Q13224).
T1 construct: host or cells: HEK293 (tetracycline-induced expression)
The assay can be described thus: NR2B Ca2+ influx assay (FLIPR, Fluo-4) in HEK293 cells expressing human GRIN1 and GRIN2B. In kind it is cell-based. The following applies: HEK293, 10 μM final compound concentration, glutamic acid/glycine-induced Ca2+ influx, read-out: inhibitory rate (10 μM compound concentration). In short, it runs like this:
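Inhibition rate was calculated from 5-min cumulative Fluo-4 signal (FLIPR, 3-s reads), using agonist-free buffer wells as 100% inhibition. Compound, 10 μM final, was applied 15 min before adding buffer with 30 μM glutamic acid and glycine to HEK293 cells with tetracycline-induced human NR1/NR2B, in HEPES pH 7.2 with 1.8 mM CaCl2.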

T1 sequence (Q13224 27-1484, other chains not shown): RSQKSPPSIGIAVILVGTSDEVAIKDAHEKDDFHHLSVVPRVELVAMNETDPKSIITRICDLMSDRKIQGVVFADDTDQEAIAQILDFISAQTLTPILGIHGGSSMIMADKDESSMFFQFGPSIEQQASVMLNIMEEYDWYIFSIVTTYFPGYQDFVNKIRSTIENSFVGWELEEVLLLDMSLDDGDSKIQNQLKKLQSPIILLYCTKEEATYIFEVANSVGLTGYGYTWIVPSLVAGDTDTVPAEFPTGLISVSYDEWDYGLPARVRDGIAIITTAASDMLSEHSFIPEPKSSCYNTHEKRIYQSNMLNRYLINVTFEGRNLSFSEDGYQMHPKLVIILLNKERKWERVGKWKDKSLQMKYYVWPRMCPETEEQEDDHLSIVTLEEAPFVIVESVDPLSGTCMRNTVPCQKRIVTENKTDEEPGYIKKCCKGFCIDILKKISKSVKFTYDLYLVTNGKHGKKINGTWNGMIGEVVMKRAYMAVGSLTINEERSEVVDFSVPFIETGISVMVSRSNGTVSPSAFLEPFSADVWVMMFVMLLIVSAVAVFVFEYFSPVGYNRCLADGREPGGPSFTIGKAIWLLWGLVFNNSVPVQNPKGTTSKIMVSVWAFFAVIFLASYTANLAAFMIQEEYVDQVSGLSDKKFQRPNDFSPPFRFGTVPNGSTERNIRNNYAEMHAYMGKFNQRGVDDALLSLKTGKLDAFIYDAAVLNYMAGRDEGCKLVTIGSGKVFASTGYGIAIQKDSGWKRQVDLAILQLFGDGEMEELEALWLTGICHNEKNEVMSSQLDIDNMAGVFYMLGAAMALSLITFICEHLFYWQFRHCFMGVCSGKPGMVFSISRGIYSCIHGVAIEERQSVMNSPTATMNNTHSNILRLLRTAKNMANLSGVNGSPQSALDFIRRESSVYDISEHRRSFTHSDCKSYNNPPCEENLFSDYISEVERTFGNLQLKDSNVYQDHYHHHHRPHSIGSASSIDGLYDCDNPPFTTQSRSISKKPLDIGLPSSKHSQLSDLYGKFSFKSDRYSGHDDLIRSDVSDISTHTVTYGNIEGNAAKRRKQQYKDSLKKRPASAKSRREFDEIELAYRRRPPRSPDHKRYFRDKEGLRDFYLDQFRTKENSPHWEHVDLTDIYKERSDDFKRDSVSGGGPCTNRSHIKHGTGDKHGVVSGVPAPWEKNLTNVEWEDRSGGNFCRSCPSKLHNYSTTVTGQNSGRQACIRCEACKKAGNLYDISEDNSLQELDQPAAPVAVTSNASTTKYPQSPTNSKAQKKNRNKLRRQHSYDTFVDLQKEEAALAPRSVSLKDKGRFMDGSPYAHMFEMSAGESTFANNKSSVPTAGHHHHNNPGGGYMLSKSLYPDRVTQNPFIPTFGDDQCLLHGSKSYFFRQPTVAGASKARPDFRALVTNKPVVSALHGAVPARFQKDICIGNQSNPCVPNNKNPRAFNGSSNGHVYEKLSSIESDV

In the case of `COc1ccc2nc(C)n(C)c2c1CNC(=O)c1ccc(OC(F)F)nc1` [Example 254, 6-(difluoromethoxy)-N-((6-methoxy-1,2-dimethyl-lH-benzimidazol-7-yl)methyl)nicotinamide], the inhibition at 10 µM was 69%.

For the molecule `O=C(NCc1c(C2CC2)ccc2[nH]ncc12)c1ccc(C(F)(F)F)cc1` [Example 61, N-((5-cyclopropyl-1H-indazol-4-yl)methyl)-4-(trifluoromethyl)-benzamide], the inhibition at 10 µM came out at 94%.

Take `O=C(NCc1c(C2CC2)ccc2[nH]ncc12)c1ccc(C(F)F)s1` [Example 155, N-((5-cyclopropyl-1H-indazol-4-yl)methyl)-5-(difluoromethyl)-thiophene-2-carboxamide]: the inhibition at 10 µM was 92%.

Regarding `O=C(NCc1c(F)ccc2[nH]ncc12)c1ccc(OC(F)(F)F)cc1` [Example 273, N-[(5-fluoro-1H-indazol-4-yl)methyl]-4-(trifluoromethoxy)-benzamide], the inhibition at 10 µM turned out to be 93%.

Turning to `CCOc1ncc(C(=O)NCc2cccc3[nH]ncc23)cc1F` [Example 171, 6-ethoxy-5-fluoro-N-(1H-indazol-4-ylmethyl)nicotinamide], the inhibition at 10 µM was found to be 85%.

On to `COc1ccc2ncn(C)c2c1CNC(=O)Nc1ccc(C(F)(F)F)c(F)c1` [Example 261, 1-(3-fluoro-4-(trifluoromethyl)-phenyl)-3-{(6-methoxy-1-methyl-1H-benzimidazol-7-yl)methyl)urea], for which the inhibition at 10 µM amounted to 92%.

As to `COc1ccc2nc(C)n(C)c2c1CNC(=O)c1csc(Cl)c1` [Example 228, 5-chloro-N-((6-methoxy-1,2-dimethyl-1H-benzimidazol-7-yl)methyl)thiophene-3-carboxamide], the inhibition at 10 µM was found to be 70%.

As for `COc1ccc2nc(C)n(C)c2c1CNC(=O)c1ccc(C(F)(F)F)s1` [Example 231, N-((6-methoxy-1,2-dimethyl-lH-benzimidazol-7-yl)methyl)-5-(trifluoromethyl)-thiophene-2-carboxamide], the inhibition at 10 µM was 73%.

As to `O=C(NCc1c(C2CC2)ccc2[nH]nnc12)c1cnc(OC(F)F)c(F)c1` [Example 226, N-((5-cyclopropyl-1H-benzotriazol-4-yl)methyl)-6-(difluoromethoxy)-5-fluoronicotinamide], the inhibition at 10 µM was determined as 94%.

For `COc1ccc2ncn(C)c2c1CNC(=O)c1cc(C)c(OC)c(C)c1` [Example 35, 4-methoxy-N-((6-methoxyl-methyl-1H-benzimidazol-7-yl)methyl)-3,5-dimethylbenzamide], the inhibition at 10 µM was found to be 77%.

Take `COc1ccc2nc(C)n(C)c2c1CNC(=O)c1ccc(C(F)F)c(Cl)c1` [Example 250]: the inhibition at 10 µM came out at 58%.

For the molecule `Cc1ccc(C(=O)NCc2cccc3[nH]ncc23)cc1F` [Example 176, 3-fluoro-N-(1H-indazol-4-ylmethyl)-4-methylbenzamide], the inhibition at 10 µM turned out to be 51%.

Take `COc1ccc2ncn(C)c2c1CNC(=O)c1ccc(Cl)c(C)c1` [Example 39, 4-chloro-N-((6-methoxy-1-methyl-1H-benzimidazol-7-yl)-methyl)-3-methyl-benzamide]: the inhibition at 10 µM is 91%.

Regarding `COc1ccc(NC(=O)NCc2c(OC)ccc3ncn(C)c23)cc1` [Example 266, 1-((6-methoxy-1-methyl-lH-benzimidazol-7-yl)methyl)-3-(4-methoxyphenyl)urea], the inhibition at 10 µM is 58%.

Turning to `CCc1ccc2[nH]nnc2c1CNC(=O)c1cc(F)c(OC)c(F)c1` [Example 206, N-((5-ethyl-1H-benzotriazol-4-yl)methyl)-3,5-difluoro-4-methoxybenzamide], the inhibition at 10 µM worked out at 95%.

As for `CCOc1ccc2ncn(C)c2c1CNC(=O)c1ccc(C(F)F)s1` [Example 126, 5-(difluoromethyl)-N-((6-ethoxy-1-methyl-1H-benzimidazol-7-yl)methyl)thiophene-2-carboxamide], the inhibition at 10 µM was 88%.

For `COc1ccc2ncn(C)c2c1CNC(=O)c1cc(F)c(OC)c(Cl)c1` [Example 111, 3-chloro-5-fluoro-4-methoxy-N-((6-methoxy-1-methyl-1H-benzimidazol-7-yl)methyl)benzamide], the inhibition at 10 µM is 93%.

With `COc1ccc2ncn(C)c2c1CNC(=O)Nc1ccc(C)c(F)c1` [Example 218, 1-(3-fluoro-4-methylphenyl)-3-((6-methoxy-1-methyl-1H-benzimidazol-7-yl)methyl)urea], the inhibition at 10 µM was 93%.

`O=C(Cc1cccs1)NCc1c(C2CC2)ccc2[nH]ncc12` [Example 65, N-((5-cyclopropyl-1H-indazol-4-yl)methyl)-2-(2-thienyl)acetamide]: the inhibition at 10 µM was 90%.

`CCc1ccc2ncn(C)c2c1CNC(=O)c1ccc(OC)cc1` [Example 145, N-((6-ethyl-1-methyl-1H-benzimidazol-7-yl)methyl)-4-methoxybenzamide]: the inhibition at 10 µM came to 92%.

For the molecule `COc1ccc2ncn(C)c2c1CNC(=O)c1ccc(Cl)c(F)c1` [Example 44, 4-chloro-3-fluoro-N-((6-methoxy-1-methyl-1H-benzimidazol-7-yl)methyl)benzamide], the inhibition at 10 µM amounted to 89%.

Consider `CCc1ccc2[nH]nnc2c1CNC(=O)c1cc(F)c(C(F)(F)F)c(F)c1` [Example 205, N-((5-ethyl-1H-benzotriazol-4-yl)methyl)-3,5-difluoro-4-(trifluoromethyl)-benzamide], for which the inhibition at 10 µM came to 87%.

`Cc1ccc(C(=O)NCc2cccc3[nH]ncc23)cc1Cl` [Example 185, 3-chloro-N-(1H-indazol-4-ylmethyl)-4-methylbenzamide]: the inhibition at 10 µM was found to be 74%.

Take `COc1cc(C(=O)NCc2c(C3CC3)ccc3[nH]ncc23)ccc1Cl` [Example 81, 4-chloro-N-((5-cyclopropyl-1H-indazol-4-yl)methyl)-3-methoxybenzamide]: the inhibition at 10 µM was found to be 82%.

In the case of `COc1ccc2ncn(C)c2c1CNC(=O)c1ccc(C)c(C(F)(F)F)c1` [Example 47, N-((6-methoxy-1-methyl-1H-benzimidazol-7-yl)-methyl)-4-methyl-3-(trifluoromethyl)benzamide], the inhibition at 10 µM is 85%.

For `O=C(NCc1cccc2[nH]ncc12)c1ccc(C(F)(F)F)cc1` [Example 175, N-(1H-indazol-4-ylmethyl)-4-(trifluoromethyl)-benzamide], the inhibition at 10 µM is 82%.

As to `O=C(NCc1c(C2CC2)ccc2[nH]ncc12)c1cc(Cl)c(Cl)s1` [Example 83, 4,5-dichloro-N-((5-cyclopropyl-1H-indazol-4-yl)methyl)thiophene-2-carboxamide], the inhibition at 10 µM was 93%.

As for `CCOc1ccc2ncn(C)c2c1CNC(=O)c1csc(C(F)F)c1` [Example 125, 5-(difluoromethyl)-N-((6-ethoxy-1-methyl-1H-benzimidazol-7-yl)methyl)thiophene-3-carboxamide], the inhibition at 10 µM stood at 92%.

As for `O=C(NCc1c(C2CC2)ccc2[nH]ncc12)c1ccc(Cl)c(F)c1` [Example 78, 4-chloro-N-((5-cyclopropyl-1H-indazol-yl)methyl)-3-fluorobenzamide], the inhibition at 10 µM stood at 93%.

With `COc1ccc2nc(C)n(C)c2c1CNC(=O)c1ccc(F)c(Cl)c1` [Example 247, 3-chloro-4-fluoro-N-((6-methoxy-1,2-dimethyl-1H-benzimidazol-7-yl)methyl)benzamide], the inhibition at 10 µM was 71%.

With `COc1ccc(C(=O)NCc2c(C3CC3)ccc3[nH]ncc23)cc1` [Example 101, N-((5-cyclopropyl-1H-indazol-4-yl)methyl)-methoxybenzamide], the inhibition at 10 µM was 92%.

Turning to `Cc1ccc2ncn(C)c2c1CNC(=O)c1csc(Cl)c1` [Example 156, 5-chloro-N-((1,6-dimethyl-1H-benzimidazol-7-yl)methyl)thiophene-3-carboxamide], the inhibition at 10 µM stood at 76%.

As to `O=C(NCc1cccc2[nH]ncc12)c1csc(Cl)c1` [Example 166, 5-chloro-N-(1H-indazol-4-ylmethyl)thiophene-3-carboxamide], the inhibition at 10 µM turned out to be 56%.

Consider `COc1ccc2nc(C)n(C)c2c1CNC(=O)c1ccc(C(F)(F)F)c(F)c1` [Example 236, 3-fluoro-N-((6-methoxy-1,2-dimethyl-1H-benzimidazol-7-yl)methyl)-4-(trifluoromethyl)-benzamide], for which the inhibition at 10 µM was found to be 59%.

Take `COCc1ccc2ncn(C)c2c1CNC(=O)c1ccc(OC(F)F)c(Cl)c1` [Example 283, 3-chloro-4-(difluoromethoxy)-N-{[6-(methoxymethyl)-1-methyl-1H-benzimidazol-7-yl]methyl}benzamide]: the inhibition at 10 µM was determined as 93%.

Regarding `COc1ccc2ncn(C)c2c1CNC(=O)c1csc(Cl)c1` [Example 28, 5-chloro-N-((6-methoxy-1-methyl-1H-benzimidazol-7-yl)nethyl)thiophene-3-carboxamide], the inhibition at 10 µM worked out at 90%.

`CCc1ccc2ncn(C)c2c1CNC(=O)c1cc(F)c(OC(F)F)c(F)c1` [Example 131, 4-(difluoromethoxy)-N-((6-ethyl-1-methyl-1H-benzimidazol-7-yl)methyl)-3,5-difluorobenzamide]: the inhibition at 10 µM came out at 93%.

As to `COc1ccc2ncn(C)c2c1CNC(=O)c1cnc(C(F)(F)F)c(Cl)c1` [Example 113, 5-chloro-N-((6-methoxy-1-methyl-1H-benzimidazol-7-yl)methyl)-6-(trifluoromethyl)-nicotinamide], the inhibition at 10 µM stood at 90%.

In the case of `COc1ccc2nc(C)n(C)c2c1CNC(=O)c1cc(F)c(OC)c(F)c1` [Example 214, 3,5-difluoro-4-methoxy-N-((6-methoxy-1,2-dimethyl-lH-benzimidazol-7-yl)methyl)benzamide], the inhibition at 10 µM worked out at 86%.

For `CCOc1ncc(C(=O)NCc2c(OC)ccc3nc(C)n(C)c23)cc1F` [Example 234, 6-ethoxy-5-fluoro-N-((6-methoxy-1,2-dimethyl-lH-benzimidazol-7-yl)methyl)nicotinamide], the inhibition at 10 µM amounted to 73%.
